Measured values from US20240279227A1, “FUSED HETEROCYCLIC DERIVATIVES” (Janssen Sciences Ireland Unlimited Company, priority 2021, published 2024).

What was measured:
HBV = experiment: Anti-HBV activity in HepG2.117 cell line (intracellular HBV DNA, real-time PCR); type: cell-based, hepatitis B virus; conditions: HepG2.117 cells, HBV replication induced, 3 days of treatment, intracellular HBV DNA by real-time PCR
Procedure, shortened: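 HepG2.117 cells (Tet-off, doxycycline-free HBV replication) induced for HBV replication, then exposed to serially diluted compound for 3 days. Intracellular HBV DNA quantified by real-time PCR with HBV-specific primers and probe.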

HepG2 or HepG2.117 cells = experiment: Cytotoxicity, ATPlite Luminescence Assay; type: cell-based, human; conditions: 3-days incubation unless marked with *, ATPlite viability
Procedure, shortened: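 Viability after compound treatment is read as ATP luminescence. Exposure lasts 3 or 4 days.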

[1] = Human liver microsome stability; type: in vitro ADME; conditions: pooled human liver microsomes 0.5 mg/mL, 1 μM compound, NADPH 1 mM, pH 7.4, 37° C., 0-60 min
Procedure, shortened: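 Pooled human liver microsomes (0.5 mg/mL) incubated at 37 °C with 1 μM compound in 0.1 M phosphate pH 7.4, 1 mM MgCl2; 1 mM NADPH starts reaction. Samples quenched in acetonitrile at 0–60 min, analysed by LC-MS against internal standard; half-life from slope of ln peak-area ratio versus time.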

**Q.** What does the source list for CNC(=O)[C@@H]1CN(C(C)c2ccc(NCC(F)(F)F)nc2)C(=O)c2c3c(nn21)C[C@@H](C)N(C(=O)c1ccc(Cl)c(Cl)c1)C3 (single isomer, unassigned) [Compound 33B, (3R,7S)-2-(3,4-dichlorobenzoyl)-N,3-dimethyl-10-oxo-9-((S*)-1-(6-((2,2,2-trifluoroethyl)amino)pyridin-3-yl)ethyl)-1,2,3,4,7,8,9,10-octahydropyrido[4′,3′:3,4]pyrazolo[1,5-a]pyrazine-7-carboxamide]?
**A.** EC50 (HBV): 0.055 µM; CC50 (HepG2 or HepG2.117 cells): > 50 µM; HLM Metabolism t1/2 [1]: >3 h

**Q.** For CNC(=O)[C@@H]1CN(C(C)c2ccc(-n3ncnc3C)cn2)C(=O)c2c3c(nn21)C[C@@H](C)N(C(=O)c1ccc(Cl)c(Cl)c1)C3 (single isomer, unassigned) [Compound 41B, (3R,7S)-2-(3,4-dichlorobenzoyl)-N,3-dimethyl-9-((S*)-1-(5-(5-methyl-1H-1,2,4-triazol-1-yl)pyridin-2-yl)ethyl)-10-oxo-1,2,3,4,7,8,9,10-octahydropyrido[4′,3′:3,4] pyrazolo[1,5-a]pyrazine-7-carboxamide], which EC50 (HBV) is on record?
**A.** 0.1 µM

**Q.** And the CC50 (HepG2 or HepG2.117 cells)?
**A.** > 50 µM

**Q.** What about the “HLM Metabolism t1/2” value [1] of the same molecule?
**A.** >3 h

**Q.** What does the source list for CNC(=O)[C@@H]1CN(C(C)c2ccc(S(C)(=O)=O)cc2)C(=O)c2c3c(nn21)C[C@@H](C)N(C(=O)c1ccc(Cl)c(C(F)(F)F)c1)C3 (single isomer, unassigned) [Compound 19B, (3R,7S)-2-(4-chloro-3-(trifluoromethyl)benzoyl)-N,3-dimethyl-9-((S*)-1-(4-(methylsulfonyl)phenyl)ethyl)-10-oxo-1,2,3,4,7,8,9,10-octahydropyrido[4′,3′:3,4]pyrazolo[1,5-a]pyrazine-7-carboxamide]?
**A.** EC50 (HBV): 0.028 µM; CC50 (HepG2 or HepG2.117 cells): > 50 µM; HLM Metabolism t1/2 [1]: >3 h

**Q.** With CNC(=O)[C@@H]1CN(C(C)c2ccc(OC(F)F)nc2)C(=O)c2c3c(nn21)C[C@@H](C)N(C(=O)c1ccc(Cl)c(Cl)c1)C3 (single isomer, unassigned) [Compound 11B, (3R,7S)-2-(3,4-dichlorobenzoyl)-9-((S*)-1-(6-(difluoromethoxy)pyridin-3-yl)ethyl)-N,3-dimethyl-10-oxo-1,2,3,4,7,8,9,10-octahydropyrido[4′,3′:3,4]pyrazolo[1,5-a]pyrazine-7-carboxamide] as the molecule, how does the EC50 (HBV) read?
**A.** 0.052 µM

**Q.** And the CC50 (HepG2 or HepG2.117 cells)?
**A.** 23.4 µM

**Q.** What about the “HLM Metabolism t1/2” value [1] of the same molecule?
**A.** >3 h

**Q.** Which results are given for CNC(=O)[C@@H]1CN(C(C)c2ccc(C#N)cc2)C(=O)c2c3c(nn21)C[C@@H](C)N(C(=O)c1ccc(Cl)c(Cl)c1)C3 (single isomer, unassigned) [Compound 23B, (3R,7S)-9-((S*)-1-(4-cyanophenyl)ethyl)-2-(3,4-dichlorobenzoyl)-N,3-dimethyl-10-oxo-1,2,3,4,7,8,9,10-octahydropyrido[4′,3′:3,4]pyrazolo[1,5-a]pyrazine-7-carboxamide]?
**A.** EC50 (HBV): 0.023 µM; CC50 (HepG2 or HepG2.117 cells): > 50 µM; HLM Metabolism t1/2 [1]: >3 h

**Q.** Which results are given for CCC(c1ccc(S(C)(=O)=O)cc1)N1C[C@@H](C(=O)NC)n2nc3c(c2C1=O)CN(C(=O)c1ccc(Cl)c(Cl)c1)[C@H](C)C3 (single isomer, unassigned) [Compound 22B, (3R,7S)-2-(3,4-dichlorobenzoyl)-N,3-dimethyl-9-((S*)-1-(4-(methylsulfonyl)phenyl)propyl)-10-oxo-1,2,3,4,7,8,9,10-octahydropyrido[4′,3′:3,4]pyrazolo[1,5-a]pyrazine-7-carboxamide]?
**A.** EC50 (HBV): 0.05 µM; CC50 (HepG2 or HepG2.117 cells): > 50 µM; HLM Metabolism t1/2 [1]: >3 h

**Q.** Which EC50 (HBV) does the source give for CNC(=O)[C@@H]1CN(C(C)c2ccc(C(C)(C)O)cn2)C(=O)c2c3c(nn21)C[C@@H](C)N(C(=O)c1ccc(Cl)c(Cl)c1)C3 (single isomer, unassigned) [Compound 39B, (3R,7S)-2-(3,4-dichlorobenzoyl)-9-((S*)-1-(5-(2-hydroxypropan-2-yl)pyridin-2-yl)ethyl)-N,3-dimethyl-10-oxo-1,2,3,4,7,8,9,10-octahydropyrido[4′,3′:3,4]pyrazolo[1,5-a]pyrazine-7-carboxamide] here?
**A.** 0.12 µM

**Q.** What about the CC50 (HepG2 or HepG2.117 cells) of the same molecule?
**A.** > 50 µM

**Q.** And the “HLM Metabolism t1/2” value [1]?
**A.** >3 h

**Q.** For CNC(=O)[C@@H]1CN(C(C)c2ccccn2)C(=O)c2c3c(nn21)C[C@@H](C)N(C(=O)c1ccc(Cl)c(Cl)c1)C3 (single isomer, unassigned) [Compound 37B, (3R,7S)-2-(3,4-dichlorobenzoyl)-N,3-dimethyl-10-oxo-9-((S*)-1-(pyridin-2-yl)ethyl)-1,2,3,4,7,8,9,10-octahydropyrido[4′,3′:3,4]pyrazolo[1,5-a]pyrazine-7-carboxamide], which EC50 (HBV) is on record?
**A.** 0.067 µM

**Q.** And the CC50 (HepG2 or HepG2.117 cells)?
**A.** > 50 µM

**Q.** And the “HLM Metabolism t1/2” value [1]?
**A.** >3 h
